Measurements: paper PMC9635472, “Design, synthesis, and biological evaluation of novel ciprofloxacin derivatives as potential anticancer agents targeting topoisomerase II enzyme” (Journal of Enzyme Inhibition and Medicinal Chemistry, 2022)
“And” between values parts separate entries of the source, which are not always exact repeats. Equal values may be shown once.

Experiments:
T-24 cells = test: Apoptosis determination by annexin V-FITC/PI assay, T-24 cells; type: cell-based, human; settings: at IC50, 24 h
Method: (§1) Apoptosis was evaluated using Annexin V fluorescein isothiocyanate (FITC) and propidium iodide (PI) using the Annexin V-FITC/PI apoptosis detection kit (Biovision, Mountain View, CA # K101-25). According to the manufacturer’s instructions after staining the cells with annexin V fluorescein (FITC) isothiocyanate. […] Cells were centrifuged and washed once with serum-containing media followed by resuspension in 500 µl of binding buffer. Then 5 µl Annexin V-FITC and 5 µl of (PI […]) were added and incubated for 5 min at room temperature in the dark. Analyses were performed using a flow cytometer (EX = 488 nm: Em = 530 nm) using a FITC signal detector and PI staining by a phycoerythrin emission signal detector.
To verify the ability of compounds 6 and 8a to induce apoptosis, a flow cytometry assay was performed using propidium iodide (PI), and immunofluorescent markers of the protein annexin-V. Dual staining for annexin-V and with PI provides the distinction between viable cells, early apoptotic cells, late apoptotic cells, and necrotic cells. […] While compound 8a induced both early and late apoptosis with 21.16- and 114.90-fold more than the control, respectively, and induced total apoptosis and necrosis with 20.1- and 4.28-fold more than the control, sequentially (Figure 14).

[1] = system: Human bladder cancer (T-24) cell line; test: MTT cell viability assay, T-24 cells; type: cell-based; settings: bladder cancer cell line T-24, treatment for 24 h (table title), means of three experiments, read-out: IC50 (μM* ± SD) T-24
Method: Human bladder cancer (T-24) and human prostate carcinoma (PC-3) cell lines were obtained from American Type Culture Collection (ATCC; Manassas, VA USA). Cells were maintained in Dulbecco’s modified Eagle medium with 10% foetal bovine serum at 37 °C and 5% CO2. All the operations were carried out under strict aseptic conditions. The culture medium was removed to a centrifuge tube containing 9.0 ml complete culture medium and spanned at approximately 125 × g for 5 to 7 min. The cell layer was rinsed with 0.25% (w/v) trypsin- […] EDTA solution by which all traces of serum-containing inhibitor were removed. Trypsin EDTA solution 2.0 to 3.0 ml was added to a flask and cells were monitored under an inverted microscope until the cell layer was dispersed (usually within 5–15 min). A complete growth medium was added (6.0–8.0 ml), and cells were aspirated by gentle pipetting. The cell pellet was suspended with the recommended complete medium and dispensed into a 75 cm^2 culture flask. The culture vessel containing the complete growth medium was placed in the incubator for 24 h to at 37 °C. The cells were treated with different concentrations (0.39, 1.60, 6.25, 25, and 100 μg/ml) of each of the test compounds or doxorubicin, […], then the plates were examined under the inverted microscope and finally the MTT assay was carried out.
Anti-cancer activity of the newly synthesised compounds was evaluated in vitro against both T-24 and PC-3 cell lines according to the MTT method. Cells were seeded into 96-well plates (flat bottom) at a density of 10 000 cells/well for 24 h. The vial of MTT to be used was reconstituted with 3 ml of medium or balanced salt solution without phenol red and serum. then, a reconstituted MTT vial was added in an amount equal to 10% of the culture medium volume. Cultures were incubated for 2–4 h depending on the cell type and maximum cell density and removed from the incubator and the formazan crystals were dissolved via the addition of an amount of MTT solubilisation solution (M-8910) equal to the original culture medium volume. ROBONIK P2000 spectrophotometer at a wavelength of 570 nm was used to measure the colour intensity spectrophotometrically. The survival curve of both T-24 and PC-3 cells was obtained by plotting the percentage of surviving cells against the drug after each compound. The IC50 value for each test compound and the reference drug doxorubicin was calculated.
In this study, all the newly synthesised CP derivatives were subjected to anticancer activity evaluation against bladder (T-24) and prostate cancer (PC-3) cell lines. The compounds were evaluated for their activity using 5 doses determinations (100 μg/ml, 25 μg/ml, 6.25 μg/ml, 1.60 μg/ml, and 0.39 μg/ml). Their half-maximal inhibitory concentration (IC50) values were measured. Doxorubicin was chosen as a reference anticancer drug[65].

PC-3 cells [2] = test: Apoptosis determination by annexin V-FITC/PI assay, PC-3 cells; type: cell-based, human; settings: at IC50, 24 h
Method: as §1
While compound 8a induced both early and late apoptosis with 41.15- and 76.77-fold more than the control, respectively, and induced total apoptosis and necrosis with 14.87- and 2.44-fold more than the control, sequentially (Figure 16).

PC-3 cells [3] = test: Cell cycle analysis (propidium iodide flow cytometry), PC-3 cells; type: cell-based, human; settings: for phase of cell cycle arrest: PC-3 cells at IC50 concentrations
Method: The cell cycle was done using a propidium iodide flow cytometry kit (Abcam, ab139418) according to the manufacturer’s instructions. […] After treatment, the cells were washed twice with ice-cold phosphate buffer saline, then centrifuged and fixed using ice-cold 66% (v/v) ethanol, washed with phosphate buffer saline re-suspended with 0.10 mg/ml, and stained with 200 µl propidium iodide. Cells were analysed by flow cytometry. The cell cycle distributions were calculated using cell–quest software (Bectopn Dickinson).
Topoisomerase inhibitors cause DNA damage which is related to G1/S and S phase arrest. Cell cycle arrest prevents the replication of damaged DNA. In PC-3 cell line compounds 6 and 8a probably arrested the cell cycle in the G1 phase by inhibition of Cyclin D–Cdk4–Cdks complex, however in the T-24 cell line, they might arrest the cell cycle in the S phase by the inhibition of both Cyclin D–Cdk4–Cdks complex and cyclins E1–E2/Cdk2, which promote G1/S transition.

Row | IC50 [1] [µM] | Structure (SMILES) | early apoptosis, fold more than the control (T-24 cells) [fold] | late apoptosis, fold more than the control (T-24 cells) [fold] | necrosis, fold more than the control (T-24 cells) [fold] | total apoptosis, fold more than the control (T-24 cells) | early apoptosis, fold more than the control (PC-3 cells [2]) [fold] | late apoptosis, fold more than the control (PC-3 cells [2]) [fold] | necrosis, fold more than the control (PC-3 cells [2]) [fold] | total apoptosis, fold more than the control (PC-3 cells [2]) [fold] | phase of cell cycle arrest (PC-3 cells [3]) | increase in the percentage of cells at the G1 phase compared to the control (PC-3 cells [3]; PC-3 cells, at IC50, 24 h) [fold] | decrease in the percentage of cells at the G2/M phase (PC-3 cells [3]; PC-3 cells, at IC50, 24 h) [fold]
1 | 3.36 ± 0.19 | O=C(CN1CCN(c2cc3c(cc2F)c(=O)c(C(=O)O)cn3C2CC2)CC1)NN=C1C(=O)Nc2ccccc21 [Compound 8a, 1-Cyclopropyl-6-fluoro-4-oxo-7-(4-(2-oxo-2-(2-(2-oxoindolin-3-ylidene)hydrazinyl)ethyl)piperazin-1-yl)-1,4-dihydroquinoline-3-carboxylic acid] | 21.16 | 114.90 | 4.28 | 20.1 fold | 41.15 | 76.77 | 2.44 | 14.87 | G1-phase cell cycle arrest | 1.27 | –
2 | 5.68 ± 0.3 | O=C1CC(=O)N(C(=O)CN2CCN(c3cc4c(cc3F)c(=O)c(C(=O)O)cn4C3CC3)CC2)N1 [Compound 6, 1-cyclopropyl-7-(4-(2-(3,5-dioxopyrazolidin-1-yl)-2-oxoethyl)piperazin-1-yl)-6-fluoro-4-oxo-1,4-dihydroquinoline-3-carboxylic acid] | 16.27 | 83.38 | 6.25 | 16.77 fold and 16.8 fold | 54.69 | 31.72 | 1.62 | 13.02 | G1-phase cell cycle arrest | 1.16 | 1.5
